Results published in patent publication US12017974B2, “Adamantanecarboxylic acid benzyl amide derivative compound and skin whitening composition comprising same” (AMOREPACIFIC CORPORATION, priority 2019, dated 2024).

System: B16F10 (malignant melanoma cells)
Experiment: Effect of inhibiting melanin formation in melanocytes (Dooley method)
Format: cell-based
Conditions: Mus musculus, B16-F10, 72 h; mice-derived B16F10 cells; treated continuously for 3 days; melanin dissolved in 1 N NaOH, absorbance at 405 nm; read-out: Inhibition of melanin formation IC50
Protocol: Each of the amide derivative compounds according to Examples was determined in terms of the effect of inhibiting melanin formation in melanocytes by using the Dooley method. As a cell line, a mice-derived B16F10 (malignant melanoma cells) available from Korean Cell Line Bank was used. In addition, DMEM (Cat No. 11195), FBS (Cat No. 16000-044) and antibiotic-antifungal agent (Cat No. 15240-062) required for culturing cells were purchased from Invitrogen (GIBCO). The cell line was cultured at 37° C. under 5% CO2. The cultured B16F10 cells were stripped off with 0.05% trypsin-EDTA, the same number of cells (1×10^4 cells/well) was inoculated into a 48-well plate, and then the medium was exchanged with a medium containing 10 ppm of each Example continuously for 3 days from the next day. As a positive control, kojic acid and 5-adamantan-1-yl-N-(2,4-dihydroxybenzyl)-2,4-dimethoxybenzamide were used. After the fifth day, the cells were treated with 1 N NaOH to carry out reaction at 60° C. for 2 hours so that melanin contained in the cells might be dissolved, and then the amount of melanin was measured by determining the absorbance at 405 nm. Then, the concentration (IC50) of each Example required for reducing melanin formation by half in melanocytes was calculated.

**Q.** `COc1cc(OC)c(C23CC4CC(CC(C4)C2)C3)cc1C(=O)NCc1ccc(O)cc1O` [5-adamantan-1-yl-N-(2,4-dihydroxybenzyl)-2,4-dimethoxybenzamide, reference compound] was tested. Which IC50 did it give?
**A.** 1100 nM

**Q.** `O=C(NCc1ccc(O)cc1O)C12CC3CC(CC(C3)C1)C2` [Example 1, Adamantane-1-Carboxylic Acid 2,4-Dihydroxybenzylamide] was tested. Which IC50 did it give?
**A.** 15000 nM

**Q.** Which IC50 does the source give for `O=C(NCc1ccc(O)c(O)c1)C12CC3CC(CC(C3)C1)C2` [Example 2, Adamantane-1-Carboxylic Acid 3,4-Dihydroxybenzylamide] here?
**A.** 20 nM

**Q.** How did the IC50 turn out when `O=C(NCc1cc(O)cc(O)c1)C12CC3CC(CC(C3)C1)C2` [Example 3, Adamantane-1-Carboxylic Acid 3,5-Dihydroxybenzylamide] was run?
**A.** 20600 nM

**Q.** For `O=C(NCc1cc(O)ccc1O)C12CC3CC(CC(C3)C1)C2` [Example 4, Adamantane-1-Carboxylic Acid 2,5-Dihydroxybenzylamide], which IC50 is on record?
**A.** 1430 nM

**Q.** For `O=C(NCc1ccc(O)cc1)C12CC3CC(CC(C3)C1)C2` [Example 5, Adamantane-1-Carboxylic Acid 4-Hydroxybenzylamide], which IC50 is on record?
**A.** 11100 nM

**Q.** `O=C(NCc1cccc(O)c1)C12CC3CC(CC(C3)C1)C2` [Example 6, Adamantane-1-Carboxylic Acid 3-Hydroxybenzylamide] was tested. Which IC50 did it give?
**A.** 480 nM

**Q.** For `O=C(NCc1ccccc1O)C12CC3CC(CC(C3)C1)C2` [Example 7, Adamantane-1-Carboxylic Acid 2-Hydroxybenzylamide], which IC50 is on record?
**A.** 2360 nM

**Q.** `O=c1cc(CO)occ1O` [Kojic acid, reference compound] was tested. Which IC50 did it give?
**A.** 500000 nM
